Data on twelve compounds can be found in patent US8222257B2, “Phosphono-pent-2-en-1-yl nucleosides and analogs” (The Regents of the University of California, priority 2005, dated 2012).

One may read the EC50 as the concentration that produces a half-maximal response. The term EC90 denotes the concentration needed for an effect of 90%.

Read-outs that look alike come from different tables or passages of the source.

The test system of data set [1] is HSV-1. The format is cell-based. To be noted: Human alphaherpesvirus 1, MRC5, DNA reduction assay in MRC-5 cells.
For data set [2], the system named is HIV-tLal. Type of data set: cell-based. To be noted: Human immunodeficiency virus 1, MT2, read-out: HIV-1 EC50.
Data set [3] has as its system VZV. The experiment in a line: VZV CPE assay in HFF cells. Type of data set: cell-based. To be noted: Human alphaherpesvirus 3.
Data set [4] has as its system EBV. Description: EBV Elisa assay in Daudi cells. Type of data set: cell-based. To be noted: human gammaherpesvirus 4, Daudi, read-out: EBV EC50.
The subject of data set [5] is HBV.
Data set [6] relates to Wild Type HBV. The experiment in a line: HBV replicative intermediates in vitro, wild type HBV. Conditions: Hepatitis B virus, read-out: EC50 for intracellular HBV replicative intermediates (HBV R.I.), Wild Type.
In data set [7] the test system is HCMV. The experiment in a line: Antiviral activity against human CMV in vitro. Conditions: for EC50: Human betaherpesvirus 5, read-out: EC50 HCMV; for EC90: Human betaherpesvirus 5, read-out: EC90 HCMV.
For data set [8], the system named is MCMV. Description: Antiviral activity against murine CMV in vitro. To be noted: in Mus musculus; for EC50: read-out: EC50 MCMV; for EC90: read-out: EC90 MCMV.
The nature of data set [9]: in vitro.
Data set [10] can be described thus: in vitro. The source holds these as a separate data set.
The mark [11] stands for this setting: Hepatitis B virus, read-out: HBV EC50, DNA reduction assay in 2.2.15 cells.
Where [12] appears, read: read-out: HBV EC50, DNA reduction assay in 2.2.15 cells.

Regarding `CCCCCCCCCCCCCCCCOCCCOP(=O)(O)CC/C=C\Cn1cnc2c(N)ncnc21` [HDP-PPen-A], the half-maximal effective concentration (EC50) in data set [1] is 17.7 µM; in data set [2] it was above 10 µM; in [3], above 60 µM; in data set [4] it was 0.1 µM; in data set [5] (setting [11]) it was 1.1 µM; in [5] (setting [12]), 2 µM. For the same compound, in [6], the EC50 was determined as 9.2 µM.

For the compound `CCCCCCCCCCCCCCCCOCCCOP(=O)(O)CC/C=C\Cn1ccc(N)nc1=O` [HDP-PPen-C, (3Z)-3-(hexadecyloxy)propyl hydrogen 5-(4-amino-2-oxopyrimidin-1(2H)-yl)pent-3-enylphosphonate], the EC50 was determined as 4.7 µM in data set [1] and 2.5 µM in data set [2].

With `CCCCCCCCCCCCCCCCOCCCOP(=O)(O)CC/C=C\Cn1cnc2c(=O)[nH]c(N)nc21` [HDP-PPen-G, (Z)-3-(hexadecyloxy)propyl hydrogen 5-(2-amino-6-oxo-1,6-dihydropurin-9-yl)pent-3-enylphosphonate], the EC50 in data set [2] is above 10 µM; in data set [3] it was 0.15 µM; in data set [4], 48 µM; in data set [5] (setting [11]), 2.4 µM; in data set [5] (setting [12]), 2.5 µM; in data set [6], 8.8 µM.

On to `CCCCCCCCCCCCCCCCOCCCOP(=O)(O)CC/C=C\Cn1cc(C)c(=O)[nH]c1=O` [HDP-PPen-T], for which the figures for the EC50 in data set [1] and in data set [2] were 0.9 µM and 1 µM, respectively.

Turning to `CCCCCCCCCCCCCCCCOCCCOP(=O)(O)CC/C=C\Cn1ccc(=O)[nH]c1=O` [HDP-PPen-U, (3Z)-3-(hexadecyloxy)propyl hydrogen 5-(3,4-dihydro-2,4-dioxopyrimidin-1(2H)-yl)pent-3-enylphosphonate], the EC50 in [1] was above 30 µM; in data set [2], above 10 µM; in data set [5] (setting [11]) it was above 30 µM.

Take `CCCCCCCCCCCCCCCCCCOCCOP(=O)(O)CC/C=C\Cn1cnc2c(=O)[nH]c(N)nc21` [ODE-PPen-G, (Z)-2-(octadecyloxy)ethyl hydrogen 5-(2-amino-6-oxo-1,6-dihydropurin-9-yl)pent-3-enylphosphonate]: the figures for the EC50 in data set [1], in data set [7] and in data set [8] were 4.6 µM, 0.17 µM and 0.004 µM, respectively. Moreover, the EC90 in data set [7] worked out at 0.81 µM; in data set [8], 0.03 µM.

For `CCCCCCCC/C=C\CCCCCCCCOCCOP(=O)(O)CC/C=C\Cn1cnc2c(=O)[nH]c(N)nc21` [OLE-PPen-G, (Z)-2-(octadec-9-enyloxy)ethyl hydrogen 5-(2-amino-6-oxo-1,6-dihydropurin-9-yl)pent-3-enylphosphonate], the results for the EC50 in data set [1], in data set [7] and in data set [8] were 0.68 µM, 0.47 µM and 0.028 µM, respectively. The CC50 in [9] and in data set [10] was above 1 µM each time. Further, the EC90 in data set [7] was 0.89 µM; in data set [8], 0.12 µM.

Take `Nc1ncnc2c1ncn2CC=CCCP(=O)(O)O` [PPen-A, 9-(5-Phosphono-pent-2-en-1-yl)-adenine]: the EC50 in data set [1] is above 30 µM; in data set [2], above 100 µM; in data set [3], above 300 µM; in [4], above 4 µM; in data set [5] (setting [11]) it was above 30 µM.

Regarding `Nc1ccn(CC=CCCP(=O)(O)O)c(=O)n1` [PPen-C, 1-(5-Phosphono-pent-2-en-1-yl)cytosine], the EC50 is above 30 µM in data set [1], above 100 µM in data set [2], above 60 µM in data set [3] and above 30 µM in data set [5] (setting [11]).

Turning to `Nc1nc2c(ncn2CC=CCCP(=O)(O)O)c(=O)[nH]1` [PPen-G, 9-(5-Phosphono-pent-2-en-1-yl)-guanine], the EC50 in data set [1] is above 30 µM; in data set [2], above 100 µM; in data set [3], 7.2 µM; in [5] (setting [11]), above 30 µM.

Turning to `Cc1cn(CC=CCCP(=O)(O)O)c(=O)[nH]c1=O` [PPen-T, 1-(5-Phosphono-pent-2-en-1-yl)-thymine], the EC50 in data set [1] was above 30 µM; in data set [2] it was above 100 µM; in data set [3], above 300 µM; in data set [5] (setting [11]) it was above 30 µM.

`O=c1ccn(CC=CCCP(=O)(O)O)c(=O)[nH]1` [PPen-U, 1-(5-Phosphono-pent-2-en-1-yl)-uracil]: the EC50 in data set [1] is above 30 µM; in [2], above 100 µM; in data set [3], above 300 µM; in [5] (setting [11]), above 30 µM.
